The values below come from publication PMC13600255 (Journal of the American Chemical Society, 2025).

Where “and” joins values, the source holds several entries; their conditions need not be identical. Equal entries are not always repeated. Entries after “also recorded” stand apart in the source; their conditions may differ. Where two headings read alike, the source gives them in different places.

Series [1] relates to mice. Description: Open field locomotor activity test in mice. To be noted: s.c.; for Locomotion in open field test: 30 mg/kg; for Locomotor activity / sedation in open field test: dose-response. The class given is in vivo, mouse.
The subject of series [2] is mice. As to the kind of experiment: Catalepsy bar test in mice. The class given is in vivo, mouse.
A short description of series [3]: Pharmacokinetics in mice, estimated free drug concentration in brain. It is filed as in vivo, mouse. To be noted: for Cmax, estimated free drug in the brain: 50 mg/kg.
Series [4] concerns the target SERT (Rattus norvegicus, UniProt P31652). As to the kind of experiment: [3H]5-HT release from rat brain synaptosomes via SERT. The class given is biochemical.
Series [5] concerns the target T1, hVMAT2 (Homo sapiens, UniProt Q05940). As to the kind of experiment: FFN206 fluorescent substrate uptake inhibition in hVMAT2-HEK cells. The class given is cell-based.
The target in series [6] is T2, rat SERT (rSERT) (Rattus norvegicus, UniProt P31652). As to the kind of experiment: [3H]5-HT uptake inhibition in rat brain synaptosomes. It is filed as biochemical. To be noted: for IC50: rat brain synaptosomes.
T2 sequence (P31652 whole entry): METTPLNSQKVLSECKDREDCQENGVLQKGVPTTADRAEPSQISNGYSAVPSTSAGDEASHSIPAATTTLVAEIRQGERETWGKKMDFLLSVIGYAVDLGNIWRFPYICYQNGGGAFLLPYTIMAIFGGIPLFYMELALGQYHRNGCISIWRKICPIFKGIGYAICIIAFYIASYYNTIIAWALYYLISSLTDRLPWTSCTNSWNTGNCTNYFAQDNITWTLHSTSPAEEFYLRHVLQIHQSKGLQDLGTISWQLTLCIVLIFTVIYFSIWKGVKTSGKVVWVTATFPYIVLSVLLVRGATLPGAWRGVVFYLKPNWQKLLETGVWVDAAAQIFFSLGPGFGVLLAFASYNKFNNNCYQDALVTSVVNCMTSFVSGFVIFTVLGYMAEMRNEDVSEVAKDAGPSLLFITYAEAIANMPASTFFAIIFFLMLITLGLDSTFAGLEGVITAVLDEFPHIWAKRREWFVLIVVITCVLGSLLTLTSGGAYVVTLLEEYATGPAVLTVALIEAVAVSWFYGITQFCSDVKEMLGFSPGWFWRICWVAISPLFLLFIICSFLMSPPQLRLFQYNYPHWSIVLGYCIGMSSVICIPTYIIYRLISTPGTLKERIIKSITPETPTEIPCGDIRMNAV
The next series concerns the target hSERT (Homo sapiens, UniProt P31645). The class given is cell-based. To be noted: read-out: IC50, hSERT (uptake inhibition, APP+); hSERT-HEK cells, fluorescent substrate APP+, n = 4.
The next series deals with VMAT2 (Rattus norvegicus, UniProt Q01827). Description: [3H]5-HT release from rat brain synaptic vesicles via VMAT2. It is filed as biochemical. To be noted: for [3H]5-HT Release % Emax via VMAT2: rat brain vesicular fraction, 5-HT control set as Emax = 100%; for EC50: read-out: [3H]5-HT Release EC50 ± SD via VMAT2; for Emax: read-out: [3H]5-HT Release % Emax via VMAT2.
Sequence of VMAT2 (Q01827 whole entry): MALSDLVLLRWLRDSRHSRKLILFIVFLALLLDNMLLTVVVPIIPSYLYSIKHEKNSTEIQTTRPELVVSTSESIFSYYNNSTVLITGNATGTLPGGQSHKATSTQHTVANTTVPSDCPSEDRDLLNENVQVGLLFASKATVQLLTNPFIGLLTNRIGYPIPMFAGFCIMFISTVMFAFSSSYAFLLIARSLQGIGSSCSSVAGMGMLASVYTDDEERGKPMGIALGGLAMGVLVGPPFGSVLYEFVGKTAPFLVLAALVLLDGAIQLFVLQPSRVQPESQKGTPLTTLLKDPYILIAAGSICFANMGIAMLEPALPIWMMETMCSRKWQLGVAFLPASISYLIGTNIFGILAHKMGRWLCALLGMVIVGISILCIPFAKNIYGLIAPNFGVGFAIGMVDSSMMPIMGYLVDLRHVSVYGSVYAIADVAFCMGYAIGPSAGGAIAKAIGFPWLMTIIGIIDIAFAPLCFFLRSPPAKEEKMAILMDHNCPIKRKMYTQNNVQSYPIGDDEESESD
In a further series the target is rat VMAT2 (rVMAT2) (Rattus norvegicus, UniProt Q01827). As to the kind of experiment: [3H]5-HT uptake inhibition in rat brain synaptic vesicular fraction. It is filed as biochemical.
Sequence of rat VMAT2 (rVMAT2) (Q01827 whole entry): as above
A further series addresses T3, hOCT2 (Homo sapiens, UniProt O15244).
T3 sequence (O15244 1-555): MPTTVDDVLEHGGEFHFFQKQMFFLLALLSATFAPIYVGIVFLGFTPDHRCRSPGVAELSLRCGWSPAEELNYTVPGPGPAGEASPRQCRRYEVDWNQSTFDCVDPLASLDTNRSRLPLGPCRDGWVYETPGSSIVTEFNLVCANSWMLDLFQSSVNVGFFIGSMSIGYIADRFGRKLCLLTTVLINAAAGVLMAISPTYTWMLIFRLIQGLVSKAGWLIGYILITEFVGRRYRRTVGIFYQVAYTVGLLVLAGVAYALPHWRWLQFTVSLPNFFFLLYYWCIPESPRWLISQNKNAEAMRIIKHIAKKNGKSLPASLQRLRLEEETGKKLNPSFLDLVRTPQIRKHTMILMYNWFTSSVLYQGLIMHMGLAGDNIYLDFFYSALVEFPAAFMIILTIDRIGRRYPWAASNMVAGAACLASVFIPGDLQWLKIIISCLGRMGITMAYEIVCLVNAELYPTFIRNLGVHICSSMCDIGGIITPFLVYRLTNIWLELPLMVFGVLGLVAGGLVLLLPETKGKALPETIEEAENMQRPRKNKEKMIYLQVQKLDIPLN
Description: ASP+ fluorescent substrate uptake inhibition at OCT2. It is filed as cell-based.

In a further series the test system is NET. To be noted: read-out: EC50, NET (release); synaptosomes; cited from earlier work.
Another series addresses rVMAT2 (Rattus norvegicus, UniProt Q01827). Description: [3H]DTBZ binding competition in rat brain synaptic vesicles.
In series [7] the test system is mice. As to the kind of experiment: Loss of righting reflex. The class given is in vivo, mouse. To be noted: high doses.
Series [8] concerns the target SERT (Mus musculus, UniProt Q60857). Description: SERTlight two-photon imaging of SERT function in acute mouse brain slices. It is filed as cell-based.
In series [9] the target is T2, rat SERT (rSERT). To be noted: read-out: IC50, rSERT reported previously in rat synaptosomes; cited from earlier work.
In series [10] the test system is other uptake 2 transporters (OCT1, OCT3, PMAT). As to the kind of experiment: Fluorescent substrate uptake inhibition at the other uptake 2 transporters. The class given is cell-based.
A further series in a line: Lipophilicity. It is filed as physicochemical. To be noted: noribogaine versus ibogamine.
For another series, the system named is humans. To be noted: cited from earlier work.
Series [11] deals with T1, hVMAT2. To be noted: read-out: IC50, VMAT2 binding, cortex; human brain cortex; cited from earlier work.
A further series addresses hDAT (Homo sapiens, UniProt Q01959). Description: APP+ fluorescent substrate uptake inhibition in hDAT-HEK cells. To be noted: read-out: IC50, hDAT. The class given is cell-based.
Series [12] deals with SERT. To be noted: SERT-transfected cells; cited from earlier work.
The target in the next series is mouse VMAT2 (mVMAT2) (Mus musculus, UniProt Q8BRU6). As to the kind of experiment: FFN200 two-photon imaging of VMAT2 function in acute mouse brain slices. It is filed as cell-based.
Sequence of mouse VMAT2 (mVMAT2) (Q8BRU6 whole entry): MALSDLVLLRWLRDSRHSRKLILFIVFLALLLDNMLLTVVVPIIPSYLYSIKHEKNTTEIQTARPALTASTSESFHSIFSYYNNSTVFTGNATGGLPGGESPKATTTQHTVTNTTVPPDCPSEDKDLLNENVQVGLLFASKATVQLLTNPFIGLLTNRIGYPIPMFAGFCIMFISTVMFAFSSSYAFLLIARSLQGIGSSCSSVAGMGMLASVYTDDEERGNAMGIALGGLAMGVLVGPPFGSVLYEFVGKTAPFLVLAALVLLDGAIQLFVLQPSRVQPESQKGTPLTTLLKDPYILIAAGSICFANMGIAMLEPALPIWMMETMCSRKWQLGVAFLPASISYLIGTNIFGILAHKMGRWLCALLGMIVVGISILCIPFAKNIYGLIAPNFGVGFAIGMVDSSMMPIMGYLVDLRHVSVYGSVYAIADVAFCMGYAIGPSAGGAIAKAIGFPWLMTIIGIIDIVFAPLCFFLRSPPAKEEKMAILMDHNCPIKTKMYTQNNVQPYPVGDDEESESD
The mark [13] stands for this setting: rat brain synaptosomes, n = 3, active releaser: EC50 < 10 μM and Emax > 30%.
Where [14] appears, read: read-out: IC50, hVMAT2 (uptake inhibition, FFN206), hVMAT2-HEK cells, fluorescent substrate FFN206, n = 4.
The mark [15] stands for this setting: read-out: Uptake Inhibition at SERT IC50, [3H]5-HT (rSERT).
Setting [16] is: read-out: [3H]5-HT Uptake Inhibition IC50 ± SD, SERT, n = 3.
The mark [17] stands for this setting: read-out: Uptake Inhibition at VMAT2 IC50, [3H]5-HT (rVMAT2), rat brain synaptic vesicles.
[18] abbreviates: read-out: IC50, hOCT2, ASP+ fluorescent substrate.

Sequence of SERT (Mus musculus, UniProt Q60857) (Q60857 whole entry): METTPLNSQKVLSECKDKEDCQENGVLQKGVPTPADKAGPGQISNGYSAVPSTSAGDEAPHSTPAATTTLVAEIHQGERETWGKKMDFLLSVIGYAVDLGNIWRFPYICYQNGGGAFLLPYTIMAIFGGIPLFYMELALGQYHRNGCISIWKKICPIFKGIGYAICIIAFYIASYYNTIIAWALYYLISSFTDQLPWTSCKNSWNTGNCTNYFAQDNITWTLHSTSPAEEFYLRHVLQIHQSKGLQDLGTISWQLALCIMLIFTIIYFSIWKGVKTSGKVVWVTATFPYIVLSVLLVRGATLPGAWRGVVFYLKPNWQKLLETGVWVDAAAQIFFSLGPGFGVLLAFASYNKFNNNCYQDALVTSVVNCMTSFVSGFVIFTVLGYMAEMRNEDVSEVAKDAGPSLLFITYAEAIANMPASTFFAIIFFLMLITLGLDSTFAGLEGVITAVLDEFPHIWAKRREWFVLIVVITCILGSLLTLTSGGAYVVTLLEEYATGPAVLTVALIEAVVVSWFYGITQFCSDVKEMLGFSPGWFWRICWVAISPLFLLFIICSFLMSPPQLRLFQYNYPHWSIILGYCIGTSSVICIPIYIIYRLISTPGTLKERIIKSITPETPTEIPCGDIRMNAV
Sequence of SERT (Rattus norvegicus, UniProt P31652) (P31652 whole entry): as the sequence (P31652 whole entry) above
T1 sequence (Q05940 whole entry): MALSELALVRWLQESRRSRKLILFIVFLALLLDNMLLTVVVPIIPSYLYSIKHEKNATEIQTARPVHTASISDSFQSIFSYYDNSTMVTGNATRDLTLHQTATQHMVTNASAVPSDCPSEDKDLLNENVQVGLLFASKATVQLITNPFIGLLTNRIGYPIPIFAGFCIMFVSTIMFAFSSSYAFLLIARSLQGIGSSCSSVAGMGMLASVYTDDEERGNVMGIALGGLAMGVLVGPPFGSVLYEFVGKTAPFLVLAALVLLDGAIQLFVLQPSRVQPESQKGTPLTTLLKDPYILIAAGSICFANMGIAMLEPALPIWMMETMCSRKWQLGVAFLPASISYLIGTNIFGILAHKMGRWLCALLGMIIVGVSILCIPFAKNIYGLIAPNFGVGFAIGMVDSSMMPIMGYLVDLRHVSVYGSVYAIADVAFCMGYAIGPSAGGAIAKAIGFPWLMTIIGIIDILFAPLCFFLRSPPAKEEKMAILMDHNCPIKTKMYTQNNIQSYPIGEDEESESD
Sequence of rVMAT2 (Q01827 whole entry): as the sequence (Q01827 whole entry) above
Sequence of hSERT (P31645 whole entry): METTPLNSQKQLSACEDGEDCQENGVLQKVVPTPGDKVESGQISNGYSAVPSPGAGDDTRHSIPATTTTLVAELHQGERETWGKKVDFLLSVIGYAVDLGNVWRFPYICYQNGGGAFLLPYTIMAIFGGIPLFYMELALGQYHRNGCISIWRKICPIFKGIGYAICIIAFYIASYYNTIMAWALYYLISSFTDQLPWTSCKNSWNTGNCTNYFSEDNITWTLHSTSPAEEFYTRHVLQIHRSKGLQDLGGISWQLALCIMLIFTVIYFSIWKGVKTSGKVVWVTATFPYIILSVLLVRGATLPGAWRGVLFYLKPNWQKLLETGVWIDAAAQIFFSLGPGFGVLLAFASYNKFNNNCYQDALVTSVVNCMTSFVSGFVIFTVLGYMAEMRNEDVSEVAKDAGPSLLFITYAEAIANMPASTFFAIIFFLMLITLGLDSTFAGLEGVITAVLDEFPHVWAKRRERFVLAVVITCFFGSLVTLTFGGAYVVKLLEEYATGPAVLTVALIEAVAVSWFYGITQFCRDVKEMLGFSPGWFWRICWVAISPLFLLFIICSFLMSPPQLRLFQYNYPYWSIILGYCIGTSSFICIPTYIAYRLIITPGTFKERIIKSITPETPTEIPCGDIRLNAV
Sequence of hDAT (Q01959 whole entry): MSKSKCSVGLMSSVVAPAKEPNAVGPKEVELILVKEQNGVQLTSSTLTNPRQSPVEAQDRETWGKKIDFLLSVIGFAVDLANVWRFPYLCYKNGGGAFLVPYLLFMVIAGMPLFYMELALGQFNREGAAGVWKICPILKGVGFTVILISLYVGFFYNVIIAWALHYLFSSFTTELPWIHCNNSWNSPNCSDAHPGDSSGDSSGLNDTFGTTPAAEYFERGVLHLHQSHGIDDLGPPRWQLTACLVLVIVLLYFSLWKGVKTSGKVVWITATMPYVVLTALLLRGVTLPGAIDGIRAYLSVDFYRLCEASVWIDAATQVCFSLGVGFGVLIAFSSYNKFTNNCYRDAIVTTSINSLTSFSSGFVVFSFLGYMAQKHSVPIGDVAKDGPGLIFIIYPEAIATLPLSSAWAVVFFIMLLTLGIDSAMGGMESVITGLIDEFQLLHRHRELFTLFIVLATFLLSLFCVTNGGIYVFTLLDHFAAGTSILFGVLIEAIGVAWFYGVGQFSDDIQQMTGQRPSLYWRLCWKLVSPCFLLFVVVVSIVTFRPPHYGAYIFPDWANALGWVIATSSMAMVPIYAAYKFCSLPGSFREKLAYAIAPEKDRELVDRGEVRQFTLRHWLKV

What is called IC50 is the midpoint of a concentration-inhibition curve. What is called EC50 is the midpoint of the concentration-response curve. In the case of `CCC1CC2CC3c4c(c5cc(O)ccc5n4CC)CCN(C2)C13` (centres unmarked) [N-ethyl-noribogaine], the “Locomotion in open field test” value in the series on mice [1] is “completely suppressed locomotion”. In addition, the “Locomotor activity / sedation in open field test” value (“Locomotor activity / sedation” for short) with mice [1] was “suppresses locomotor activity”. Also, the “Catalepsy in bar test” value is “catalepsy was induced” in the series with mice [2] (mice, 50 mg/kg, s.c., 60-minute mark); “induces catalepsy” in the series on mice [2] (mice, s.c., dose-response); “lack of catalepsy; also recorded: did not induce catalepsy” with mice [2] (mouse, in vivo). The “Cmax, estimated free drug in the brain” value in [3] (mice, s.c.) was 11 µM. For the same compound, the “[3H]5-HT Release % Emax via SERT” value at SERT [4] (rat brain synaptosomes, n = 3) was below 30%. At SERT [4] (setting [13]), the “[3H]5-HT Release EC50 ± SD via SERT” value is “inactive”. Further, the 50% inhibitory concentration (IC50) on hVMAT2 [5] (setting [14]) is 70 nM; on rat SERT (rSERT) [6] (setting [15]), 80 nM; at rat SERT (rSERT) [6] (setting [16]) it was 80.1 ± 7.2 nM; at hSERT, 1860 nM; on rat VMAT2 (rVMAT2) (setting [17]), 54 nM. Besides, at rat SERT (rSERT) [6], the “Potency in synaptosomes ([3H]5-HT, rSERT) relative to transfected cells (hSERT)” value was “more than 20 fold”. The “[3H]5-HT Release % Emax via VMAT2” value on VMAT2 worked out at 31%. The EC50 on VMAT2 is 711 ± 254 nM.

Regarding `CC[C@H]1C[C@@H]2C[C@H]3c4c(c5cc(OC)ccc5n4C)CCN(C2)[C@@H]13` [N-methyl-ibogaine], the IC50 at hOCT2 (setting [18]) came to 2300 nM.

On to `C[C@H](N)Cc1ccccc1` [S-amphetamine], for which the EC50 in the series with NET was […].

A word on the Emax: it is the greatest response seen or fitted, relative to the assay's reference. With `CC[C@H]1C[C@@H]2C[C@H]3c4[nH]c5ccccc5c4CCN(C2)[C@@H]13` [ibogamine], the “[3H]5-HT Release EC50 ± SD via SERT” value on SERT [4] was “inactive”. Also, on SERT [4] (rat brain synaptosomes), the “[3H]5-HT release from preloaded synaptosomes (qualitative)” value is “No [^3H]5-HT release was observed”. Further, the Emax at SERT [4] (read-out: [3H]5-HT Release % Emax via SERT) and on VMAT2 was below 30% throughout. For the same compound, the 50% inhibitory concentration (IC50) on hVMAT2 [5] is 3010 nM; against rat SERT (rSERT) [6] (Uptake Inhibition at SERT IC50, [3H]5-HT (rSERT)), 554 nM; against rat SERT (rSERT) [6] ([3H]5-HT Uptake Inhibition IC50 ± SD, SERT, n = 3), 554 ± 49 nM; against hOCT2, 2000 nM; against rat VMAT2 (rVMAT2), above 10000 nM. Also, the “[3H]5-HT Release EC50 ± SD via VMAT2” value on VMAT2 is “inactive”. Besides, the “Concentration at which [3H]5-HT release exceeds Emax of 30%” value on VMAT2 (rat brain synaptic vesicles) is above 10 µM.

As to `CC[C@H]1C[C@H]2C[C@H]3c4[nH]c5ccc(O)cc5c4CCN(C2)[C@@H]13` [noribogaine], the “Locomotion in open field test” value with mice [1] was “strongly suppressed”. Also, the “Locomotor activity / sedation” value in the series with mice [1] is reported as “diminished ambulatory behavior”. Moreover, the “Catalepsy in bar test” value in the series with mice [2] (mice, high doses 30, 50 and 80 mg/kg, s.c.) is given as “did not induce catalepsy; also recorded: did not show any catalepsy”; in the series on mice [2] (mice, s.c., dose-response), “does not result in catalepsy”. Moreover, the “[3H]DTBZ displacement” value at rVMAT2 was below 20%. Also, the IC50 at rVMAT2 (read-out: IC50, rVMAT2 ([3H]DTBZ competition)) is above 10000 nM; on rat SERT (rSERT) [9], 330 nM; on hVMAT2 [5] (setting [14]), 570 nM; on rat SERT (rSERT) [6] (setting [15]), 326 nM; at rat SERT (rSERT) [6] (setting [16]), 326 ± 47.6 nM; on hVMAT2 [11], 5000 nM. In addition, the IC50 at hDAT was 6760 nM; on hOCT2 (setting [18]), 6180 nM; on mouse VMAT2 (mVMAT2) (read-out: IC50 FFN200 uptake in acute mouse slices, number of puncta per image, dose-response), 160 nM; on rat VMAT2 (rVMAT2) (setting [17]), 1310 nM. Besides, the “Cmax, estimated free brain concentration” value in series [3] (mice, 10 mg/kg, s.c.) is reported as ~ 6.6 μM. The “Cmax, estimated free drug in the brain” value in series [3] (mice, s.c.) was 31 µM and > 20 µM. Moreover, the “Concentration of free drug in the brain over plasma” value in [3] (rodents (rats ref 11 and mice, Figure S11)) is given as above 4 fold. The “[3H]5-HT release from preloaded synaptosomes (qualitative)” value on SERT [4] (rat brain synaptosomes) was “No [^3H]5-HT release was observed”. Besides, the “[3H]5-HT Release % Emax via SERT” value at SERT [4] (rat brain synaptosomes, n = 3) is reported as below 30%. In addition, at SERT [4] (setting [13]), the “[3H]5-HT Release EC50 ± SD via SERT” value was “inactive”. Also, the “Loss of righting reflex (LORR)” value in the series with mice [7] was “did not observe a loss of righting reflex”. In addition, the “Effect on somatodendritic SERTlight labeling in dorsal raphe” value on SERT [8] (2 μM) was “showed no effect”; at SERT [8] (10 μM), “showed no effect”; on SERT [8] (30 μM) it was “no apparent effect”; on SERT [8] (100 μM), “clear inhibition”. The “Effect on SERTlight labeling of 5-HT axons” value at SERT [8] (2 μM for 30 minutes, SERTlight 10 μM, SNpr, DS, SSp2/3) is given as “ablated SERTlight probe uptake; also recorded: completely blocked the SERTlight signal; also recorded: completely inhibited the axonal SERT”. The “Inhibitory potency on SERTlight staining in dorsal raphe, dose-response” value at SERT [8] (10, 30, 50, and 100 μM) is “weak inhibitory potency”. In addition, in series [10], the “Inhibition at the other uptake 2 transporters examined” value is listed as “no inhibition below 10 μM”. The “Less lipophilic than ibogamine by” value in the series “Lipophilicity” stood at 1.75 log D units. Moreover, the Dose-limiting cardiac effect entry in the series with humans (top dose of 180 mg, p.o.) is on record as “cardiac QT interval prolongation”. The “Partial [3H]5-HT release Emax” value with SERT [12] is on record as ~ 30%. Moreover, the “Effect on FFN200 uptake / punctate labeling” value on mouse VMAT2 (mVMAT2) (2 μM for 30 minutes, FFN200 10 μM, dorsal striatum) is listed as “strong inhibitory effects; also recorded: completely inhibited FFN200 uptake”. At VMAT2, the “[3H]5-HT Release % Emax via VMAT2” value was 50%. In addition, on VMAT2, the EC50 worked out at 6480 nM.

In the case of `COc1cc2c(cc1OC)C1CC(=O)C(CC(C)C)CN1CC2` (centres unmarked) [tetrabenazine (TBZ), tetrabenazine, reference compound], the “Locomotor activity / sedation” value with mice [1] was “diminished locomotor activity; also recorded: sedation in the open field test”. The “Catalepsy in bar test” value in the series with mice [2] (mice, s.c., dose-response) is “catalepsy in the bar test in a dose-dependent manner; also recorded: catalepsy can be readily induced”. Also, the “Parkinsonism as an adverse effect, share of subjects” value in the series with humans (therapeutic doses, treated for dyskinesias) was 15–24%. The maximal response (Emax) on VMAT2 was below 30%.
